{"source": "patent US20090298781A1", "about": "“COMPOUNDS FOR THE INHIBITION OF APOPTOSIS” (CONSEJO SUPERIOR DE, priority 2005, published 2009)", "assay_type_in_all_cases": "cell-based", "key": {"Saos-2 cell line": {"system": "Saos-2 cell line", "assay": "MTT assay, toxicity (cell viability), Saos-2", "protocol": "(§1) The MTT assay measures cell proliferation as well as reduction in cell viability when metabolic events lead to apoptosis or necrosis. It can also be used to assess the rate of survival of a given cell line when it is incubated in the presence of xenobiotics. The reduction of tetrazolium salts is accepted as a reliable way to analyse cell proliferation. The yellow tetrazolium MTT (3-(4,5-dimethylthiazolyl-2)-2,5-diphenyltetrazolium bromide) is reduced by metabolically active cells and results in the intracellular formation of purple formazan that can be spectrophotometrically measured after solubilisation with DMSO.\n(§2) The MTT assay was used in this invention to assess the toxicity of compounds at different concentrations. To analyse their potential impairment in cell viability, compounds were added to Saos-2 and U937 cell lines at different concentrations and incubated at different times. Results are expressed by percentage cell viability."}, "U937 cell line": {"system": "U937 cell line", "assay": "MTT assay, toxicity (cell viability), U937", "protocol": "as §1, §2"}, "Caspase activity, HeLa": {"system": "Caspase activity, HeLa", "assay": "Caspase inhibition assay, HeLa", "settings": "Homo sapiens"}, "Caspase activity, U2-OS": {"system": "Caspase activity, U2-OS", "assay": "Caspase inhibition assay, U2-OS", "settings": "Homo sapiens, U2OS"}, "[1]": {"system": "Caspase activity, U937 cell extracts", "assay": "Caspase inhibition assay, U937 cell extracts", "settings": "Homo sapiens, U-937", "protocol": "(§3) The time-dependent inhibition of caspase induced by the compounds described in this invention was analysed. […] Caspase activity was assayed using Saos-2 or U937 cell extracts and Ac-DEVD-afc (N-acetyl-Asp-Glu-Val-Asp-afc(7-amino-4-trifluoromethyl coumarin)) as substrate (20 μM). Caspase activity was continuously monitored by the liberation of fluorescent afc using a Cytofluor 4000 fluorimeter (excitation 400 nm; emission 508 nm) for 1 hour. The effect of the compounds on the caspase activity was expressed as the percentage of inhibition in the fluorescence signal of treated cells vs. the non-treated cells (control)."}, "[2]": {"system": "Caspase activity, Saos-2 cell extracts", "assay": "Caspase inhibition assay, Saos-2 cell extracts", "settings": "Homo sapiens, 1 μM", "protocol": "as §3"}}, "note": "Several values for one entry are separate records, joined by “and”; a condition that tells them apart may be missing. Equal values may be shown once.", "data": [{"smiles": "NC(=O)CN(CC1CCCO1)C(=O)C1CC(=O)N(CCc2ccc(Cl)cc2Cl)CC(=O)N1CCC(c1ccccc1)c1ccccc1", "note": "(stereo not drawn) [I.4, 1-[2-(2,4-Dichlorophenyl)ethyl]-4-(3,3-diphenylpropyl)-3,7-dioxo[1,4]diazepane-5-carboxylic acid carbamoylmethyl(tetrahydrofuran-2-ylmethyl)amide]", "values": [{"measurement": "% Cell viability", "setting": "Saos-2 cell line; Saos-2, 24 h, 1 μM", "value": 100, "unit": "%"}, {"measurement": "% Cell viability", "setting": "Saos-2 cell line; Saos-2, 24 h, 5 μM", "value": 97, "unit": "%"}, {"measurement": "% Cell viability", "setting": "Saos-2 cell line; Saos-2, 24 h, 10 μM", "value": 100, "unit": "%"}, {"measurement": "% Cell viability", "setting": "Saos-2 cell line; Saos-2, 48 h, 1 μM", "value": 100, "unit": "%"}, {"measurement": "% Cell viability", "setting": "Saos-2 cell line; Saos-2, 48 h, 5 μM", "value": 98, "unit": "%"}, {"measurement": "% Cell viability", "setting": "Saos-2 cell line; Saos-2, 48 h, 10 μM", "value": 99, "unit": "%"}, {"measurement": "% Cell viability", "setting": "U937 cell line; U937, 24 h, 1 μM", "value": 100, "unit": "%"}, {"measurement": "% Cell viability", "setting": "U937 cell line; U937, 24 h, 5 μM", "value": 99, "unit": "%"}, {"measurement": "% Cell viability", "setting": "U937 cell line; U937, 24 h, 10 μM", "value": 87, "unit": "%"}, {"measurement": "% Cell viability", "setting": "U937 cell line; U937, 48 h, 1 μM", "value": 99, "unit": "%"}, {"measurement": "% Cell viability", "setting": "U937 cell line; U937, 48 h, 5 μM", "value": 94, "unit": "%"}, {"measurement": "% Cell viability", "setting": "U937 cell line; U937, 48 h, 10 μM", "value": 95, "unit": "%"}, {"measurement": "inhibition at 1 µM", "setting": "Caspase activity, HeLa; 24 h", "value": 48, "unit": "%"}, {"measurement": "inhibition at 1 µM", "setting": "Caspase activity, HeLa; 48 h", "value": 14, "unit": "%"}, {"measurement": "inhibition at 1 µM", "setting": "Caspase activity, HeLa; 72 h", "value": 35, "unit": "%"}, {"measurement": "inhibition at 1 µM", "setting": "Caspase activity, U2-OS; 24 h", "value": 0, "unit": "%"}, {"measurement": "inhibition at 1 µM", "setting": "Caspase activity, U2-OS; 48 h", "value": 23, "unit": "%"}, {"measurement": "inhibition at 1 µM", "setting": "Caspase activity, U2-OS; 72 h", "value": 54, "unit": "%"}, {"measurement": "inhibition at 1 µM", "setting": "[1]; U937, 24 h", "value": 0, "unit": "%"}, {"measurement": "inhibition at 1 µM", "setting": "[1]; U937, 48 h", "value": 12, "unit": "%"}, {"measurement": "inhibition at 1 µM", "setting": "[1]; U937, 72 h", "value": 0, "unit": "%"}, {"measurement": "inhibition at 1 µM", "setting": "[2]; Saos-2, 24 h", "value": 55, "unit": "%"}, {"measurement": "inhibition at 1 µM", "setting": "[2]; Saos-2, 48 h", "value": 9, "unit": "%"}]}, {"smiles": "NC(=O)CN(CCc1ccc(Cl)cc1Cl)C(=O)C1CC(=O)N(CCc2ccc(Cl)cc2Cl)CC(=O)N1CCC(c1ccccc1)c1ccccc1", "note": "(stereo not drawn) [I.1, 1-[2-(2,4-Dichlorophenyl)ethyl]-4-(3,3-diphenylpropyl)-3,7-dioxo[1,4]-diazepane-5-carboxylic acid carbamoylmethyl-[2-(2,4-dichlorophenyl)-ethyl]amide]", "values": [{"measurement": "% Cell viability", "setting": "Saos-2 cell line; Saos-2, 24 h, 1 μM", "value": 99, "unit": "%"}, {"measurement": "% Cell viability", "setting": "Saos-2 cell line; Saos-2, 24 h, 5 μM", "value": 100, "unit": "%"}, {"measurement": "% Cell viability", "setting": "Saos-2 cell line; Saos-2, 24 h, 10 μM", "value": "96% and 100%"}, {"measurement": "% Cell viability", "setting": "Saos-2 cell line; Saos-2, 24 h, 25 μM", "value": 63, "unit": "%"}, {"measurement": "% Cell viability", "setting": "Saos-2 cell line; Saos-2, 24 h, 50 μM", "value": 19, "unit": "%"}, {"measurement": "% Cell viability", "setting": "Saos-2 cell line; Saos-2, 48 h, 1 μM", "value": "100% and 97%"}, {"measurement": "% Cell viability", "setting": "Saos-2 cell line; Saos-2, 48 h, 5 μM", "value": "100% and 94%"}, {"measurement": "% Cell viability", "setting": "Saos-2 cell line; Saos-2, 48 h, 10 μM", "value": "100% and 97%"}, {"measurement": "% Cell viability", "setting": "Saos-2 cell line; Saos-2, 48 h, 25 μM", "value": 19, "unit": "%"}, {"measurement": "% Cell viability", "setting": "Saos-2 cell line; Saos-2, 48 h, 50 μM", "value": 11, "unit": "%"}, {"measurement": "% Cell viability", "setting": "Saos-2 cell line; Saos-2, 72 h, 1 μM", "value": 89, "unit": "%"}, {"measurement": "% Cell viability", "setting": "Saos-2 cell line; Saos-2, 72 h, 5 μM", "value": 88, "unit": "%"}, {"measurement": "% Cell viability", "setting": "Saos-2 cell line; Saos-2, 72 h, 10 μM", "value": 80, "unit": "%"}, {"measurement": "% Cell viability", "setting": "Saos-2 cell line; Saos-2, 72 h, 25 μM", "value": 8, "unit": "%"}, {"measurement": "% Cell viability", "setting": "U937 cell line; U937, 24 h, 1 μM", "value": 100, "unit": "%"}, {"measurement": "% Cell viability", "setting": "U937 cell line; U937, 24 h, 5 μM", "value": "98% and 90%"}, {"measurement": "% Cell viability", "setting": "U937 cell line; U937, 24 h, 10 μM", "value": "95% and 87%"}, {"measurement": "% Cell viability", "setting": "U937 cell line; U937, 24 h, 25 μM", "value": 59, "unit": "%"}, {"measurement": "% Cell viability", "setting": "U937 cell line; U937, 24 h, 50 μM", "value": 27, "unit": "%"}, {"measurement": "% Cell viability", "setting": "U937 cell line; U937, 48 h, 1 μM", "value": 100, "unit": "%"}, {"measurement": "% Cell viability", "setting": "U937 cell line; U937, 48 h, 5 μM", "value": "97% and 94%"}, {"measurement": "% Cell viability", "setting": "U937 cell line; U937, 48 h, 10 μM", "value": "99% and 83%"}, {"measurement": "% Cell viability", "setting": "U937 cell line; U937, 72 h, 1 μM", "value": 98, "unit": "%"}, {"measurement": "% Cell viability", "setting": "U937 cell line; U937, 72 h, 5 μM", "value": 89, "unit": "%"}, {"measurement": "% Cell viability", "setting": "U937 cell line; U937, 72 h, 10 μM", "value": 67, "unit": "%"}, {"measurement": "inhibition at 1 µM", "setting": "Caspase activity, HeLa; 24 h", "value": 29, "unit": "%"}, {"measurement": "inhibition at 5 µM", "setting": "Caspase activity, HeLa; 24 h", "value": 31, "unit": "%"}, {"measurement": "inhibition at 1 µM", "setting": "Caspase activity, HeLa; 48 h", "value": 75, "unit": "%"}, {"measurement": "inhibition at 5 µM", "setting": "Caspase activity, HeLa; 48 h", "value": 78, "unit": "%"}, {"measurement": "inhibition at 1 µM", "setting": "Caspase activity, HeLa; 72 h", "value": 34, "unit": "%"}, {"measurement": "inhibition at 5 µM", "setting": "Caspase activity, HeLa; 72 h", "value": 33, "unit": "%"}, {"measurement": "inhibition at 1 µM", "setting": "Caspase activity, U2-OS; 24 h", "value": 0, "unit": "%"}, {"measurement": "inhibition at 5 µM", "setting": "Caspase activity, U2-OS; 24 h", "value": 0, "unit": "%"}, {"measurement": "inhibition at 1 µM", "setting": "Caspase activity, U2-OS; 48 h", "value": 58, "unit": "%"}, {"measurement": "inhibition at 5 µM", "setting": "Caspase activity, U2-OS; 48 h", "value": 54, "unit": "%"}, {"measurement": "inhibition at 1 µM", "setting": "Caspase activity, U2-OS; 72 h", "value": 1, "unit": "%"}, {"measurement": "inhibition at 5 µM", "setting": "Caspase activity, U2-OS; 72 h", "value": 25, "unit": "%"}, {"measurement": "inhibition at 1 µM", "setting": "[1]; U937, 24 h", "value": 0, "unit": "%"}, {"measurement": "inhibition at 5 µM", "setting": "[1]; U937, 24 h", "value": 19, "unit": "%"}, {"measurement": "inhibition at 1 µM", "setting": "[1]; U937, 48 h", "value": 14, "unit": "%"}, {"measurement": "inhibition at 5 µM", "setting": "[1]; U937, 48 h", "value": 19, "unit": "%"}, {"measurement": "inhibition at 1 µM", "setting": "[1]; U937, 72 h", "value": 12, "unit": "%"}, {"measurement": "inhibition at 5 µM", "setting": "[1]; U937, 72 h", "value": 46, "unit": "%"}, {"measurement": "inhibition at 1 µM", "setting": "[2]; Saos-2, 24 h", "value": 21, "unit": "%"}, {"measurement": "inhibition at 1 µM", "setting": "[2]; Saos-2, 48 h", "value": 17, "unit": "%"}, {"measurement": "inhibition at 1 µM", "setting": "[2]; Saos-2, 72 h", "value": 4, "unit": "%"}]}]}
